The text below walks through data of article PMC4763008, “Selective Inhibition of Bakuchicin Isolated from Psoralea corylifolia on CYP1A in Human Liver Microsomes” (Evidence-based Complementary and Alternative Medicine : eCAM, 2016).

Format in all cases: in vitro ADME
The target of data set [1] is T1, CYP1A2 (Homo sapiens, UniProt P05177).
T1 construct: tissue Corning Gentest BD UltraPool HLM 150; host or cells: pooled human liver microsomes
T1 sequence (P05177 1-516): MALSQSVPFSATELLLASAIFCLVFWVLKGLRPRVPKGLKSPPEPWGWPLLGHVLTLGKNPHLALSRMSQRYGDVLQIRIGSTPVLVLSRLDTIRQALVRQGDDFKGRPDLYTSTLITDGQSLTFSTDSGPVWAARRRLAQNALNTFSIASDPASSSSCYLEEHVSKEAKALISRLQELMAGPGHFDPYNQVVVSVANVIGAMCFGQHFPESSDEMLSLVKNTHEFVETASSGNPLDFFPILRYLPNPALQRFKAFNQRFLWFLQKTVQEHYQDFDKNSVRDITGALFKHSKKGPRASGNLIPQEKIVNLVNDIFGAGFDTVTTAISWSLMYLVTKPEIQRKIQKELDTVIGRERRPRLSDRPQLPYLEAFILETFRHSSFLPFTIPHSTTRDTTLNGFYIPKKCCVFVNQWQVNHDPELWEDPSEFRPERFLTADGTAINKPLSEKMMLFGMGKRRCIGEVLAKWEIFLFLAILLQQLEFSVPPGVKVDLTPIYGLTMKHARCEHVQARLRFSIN
The data set can be described thus: CYP inhibition, cocktail of probe substrates in pooled human liver microsomes: phenacetin O-deethylation. Particulars: for pIC50: pooled HLMs, substrate 80 μM. On the procedure:
(§1) All incubations were performed in duplicate, and data are presented as means. Briefly, each reaction was performed with 0.5 mg/mL pooled human liver microsomes in a final incubation volume of 0.1 mL. The incubation medium consisted of 0.1 M potassium phosphate buffer (pH 7.4) containing cocktail of probe substrates and a NADPH-generating system (NGS) of 0.1 M glucose 6-phosphate, 10 mg/mL β-NADPH, and 1.0 U/mL glucose-6-phosphate dehydrogenase. To investigate the IC50 of bakuchicin during CYP1A inhibition, bakuchicin (at final concentrations of 0–25 μM) was incubated without preincubation. In addition, the mixture with bakuchicin was preincubated for 15 min without the probe substrate cocktail in the presence or absence of 1 mM β-NADPH. After the reaction was initiated by adding the NGS for 60 min, incubated samples were terminated by adding 100 μL acetonitrile containing 0.1% formic acid and 2.5 μL of internal standard solution (5 μM reserpine) in methanol. After mixing and centrifuging at 13,000 ×g for 12 min, a 5 μL aliquot was injected onto a C18 column for LC-MS/MS analysis.
(§2) All measurements were performed using LC-MS/MS in multiple reaction monitoring mode. LC-MS/MS was performed using an Accela™ LC system coupled to a TSQ Vantage triple quadrupole mass spectrometer (Thermo Fisher Scientific Inc., USA) equipped with a HESI-II Spray source. Electrospray ionization was performed in positive mode at a spray voltage of 3,500 V (except for the detection of 6-hydroxy chlorzoxazone). Nitrogen was used as a sheath and auxiliary gas at optimum values of 45 and 20 (arbitrary units), respectively. Vaporizer and capillary temperatures were 150 and 300°C, respectively. For LC analysis an Inertsil® ODS-2 (3 μm, 2.1 × 150 mm) column (GL Sciences Inc., Torrance, CA) was used. The mobile phase consisted of acetonitrile (mobile phase A) and water (mobile phase B), both of which contained 0.1% formic acid, at a flow rate of 0.22 mL/min at 30°C.
All incubations were performed in duplicate, and data are presented as means. IC50 values (the concentration of inhibitor causing a 50% inhibition in enzyme activity) were obtained using percent activity versus log[I] concentration plots. Kinetic parameters were estimated by curve fitting using SigmaPlot (version 12.0, Systat Software, Inc.).

Data set [2] deals with T2, CYP2B6 (Homo sapiens, UniProt P20813).
T2 construct: tissue Corning Gentest BD UltraPool HLM 150; host or cells: pooled human liver microsomes
T2 sequence (P20813 1-491): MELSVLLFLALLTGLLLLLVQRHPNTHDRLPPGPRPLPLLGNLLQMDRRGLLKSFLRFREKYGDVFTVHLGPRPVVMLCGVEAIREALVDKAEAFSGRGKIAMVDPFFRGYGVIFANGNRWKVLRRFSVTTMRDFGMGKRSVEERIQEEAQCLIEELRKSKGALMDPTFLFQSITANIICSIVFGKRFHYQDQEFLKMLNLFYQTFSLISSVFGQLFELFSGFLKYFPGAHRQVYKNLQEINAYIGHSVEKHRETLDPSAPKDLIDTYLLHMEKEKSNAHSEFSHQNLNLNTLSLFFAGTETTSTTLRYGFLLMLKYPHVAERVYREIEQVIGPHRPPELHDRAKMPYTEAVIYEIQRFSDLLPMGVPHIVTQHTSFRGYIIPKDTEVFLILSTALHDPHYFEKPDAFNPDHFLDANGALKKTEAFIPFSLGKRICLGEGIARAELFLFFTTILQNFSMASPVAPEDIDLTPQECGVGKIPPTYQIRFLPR
The data set can be described thus: CYP inhibition, cocktail of probe substrates in pooled human liver microsomes: bupropion hydroxylation. Particulars: pooled HLMs, substrate 50 μM. On the procedure:
as §1, §2
(§3) All incubations were performed in duplicate, and data are presented as means. […]

The target in data set [3] is T3, CYP2C8 (Homo sapiens, UniProt P10632).
T3 construct: each reaction was performed with 0.5 mg/mL pooled human liver microsomes; tissue Corning Gentest BD UltraPool HLM 150; host or cells: pooled human liver microsomes
T3 sequence (P10632 1-490): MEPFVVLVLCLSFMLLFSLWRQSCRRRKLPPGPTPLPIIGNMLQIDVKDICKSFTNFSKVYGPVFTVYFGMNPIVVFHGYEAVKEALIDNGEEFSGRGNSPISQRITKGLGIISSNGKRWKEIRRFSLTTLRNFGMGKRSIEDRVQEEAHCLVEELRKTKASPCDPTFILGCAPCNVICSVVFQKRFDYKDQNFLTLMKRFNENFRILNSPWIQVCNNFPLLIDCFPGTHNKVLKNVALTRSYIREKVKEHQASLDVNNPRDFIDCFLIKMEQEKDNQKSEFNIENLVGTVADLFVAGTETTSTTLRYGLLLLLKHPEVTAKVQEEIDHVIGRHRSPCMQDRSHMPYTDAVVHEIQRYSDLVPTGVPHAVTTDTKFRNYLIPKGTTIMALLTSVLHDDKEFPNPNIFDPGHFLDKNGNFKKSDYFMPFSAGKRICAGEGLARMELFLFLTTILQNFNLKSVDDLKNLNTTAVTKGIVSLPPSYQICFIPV
The data set can be described thus: CYP inhibition, cocktail of probe substrates in pooled human liver microsomes: paclitaxel hydroxylation. Particulars: pooled HLMs, substrate 10 μM. (Liver microsomes are vesicles of endoplasmic reticulum, rich in cytochrome P450 enzymes.)

The target of data set [4] is T4, CYP2C19 (Homo sapiens, UniProt P33261).
T4 construct: tissue Corning Gentest BD UltraPool HLM 150; host or cells: pooled human liver microsomes
T4 sequence (P33261 whole entry): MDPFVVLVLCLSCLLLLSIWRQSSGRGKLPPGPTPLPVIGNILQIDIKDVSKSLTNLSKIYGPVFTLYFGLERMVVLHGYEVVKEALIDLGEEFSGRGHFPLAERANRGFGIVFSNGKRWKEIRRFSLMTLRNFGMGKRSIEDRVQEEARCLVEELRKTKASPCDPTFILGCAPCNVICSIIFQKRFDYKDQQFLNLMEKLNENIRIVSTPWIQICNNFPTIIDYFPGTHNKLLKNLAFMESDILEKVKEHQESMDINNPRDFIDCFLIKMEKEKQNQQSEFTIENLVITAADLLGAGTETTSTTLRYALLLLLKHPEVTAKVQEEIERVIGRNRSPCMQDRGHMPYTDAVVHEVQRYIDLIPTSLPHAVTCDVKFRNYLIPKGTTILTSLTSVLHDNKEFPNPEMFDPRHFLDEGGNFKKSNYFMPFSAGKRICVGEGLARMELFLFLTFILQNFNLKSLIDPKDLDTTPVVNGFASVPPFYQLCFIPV
The data set can be described thus: CYP inhibition, cocktail of probe substrates in pooled human liver microsomes: omeprazole 5-hydroxylation. Particulars: pooled HLMs, substrate 20 μM. On the procedure:
as §1, §2, §3

The mark [5] stands for this setting: 15 min preincubation with NADPH, read-out: IC50 With preincubation with NADPH.
The mark [6] stands for this setting: 15 min preincubation without NADPH, read-out: IC50 With preincubation Without NADPH.
Setting [7] is: without preincubation, read-out: IC50 Without preincubation.

The structures appear in SMILES notation. pIC50: −log10 of the molar value. Where two headings read alike, the source gives them in different places.

Broadly, the pIC50 is the negative decadic logarithm of the IC50, by convention in mol/L.

For `O=c1ccc2c(ccc3ccoc32)o1` [Bakuchicin], in data set [1] (HLMs, preincubation time 0-20 min at 37°C), the “time dependence of CYP1A inhibition” value is reported as “not time-dependent inhibition”. Further, the negative-log IC50 (pIC50) in data set [1] (setting [5]) is 6.66; in data set [1] (setting [6]), 6.66; in data set [1] (setting [7]), 6.37; in data set [2] (setting [5]) it was 4.94; in data set [2] (setting [6]), 4.79; in data set [2] (setting [7]), 4.85. Besides, the pIC50 in data set [3] (setting [5]), in data set [3] (setting [6]), in data set [3] (setting [7]), in data set [4] (setting [5]), in data set [4] (setting [6]) and in data set [4] (setting [7]) was under 4.00 each time.
